The values below come from patent publication US9745345B2, “Anti-tumor polypeptides and method for preparing anti-tumor drugs comprisng the same” (priority 2013, dated 2017).

Square brackets hold non-standard residues; d marks the D form. Ends that are not written are not given here. pS = N[C@@H](COP(=O)(O)O)C(=O)O; Ahx = NCCCCCC(=O)O

For test [1], the system named is Human melanoma A375 cells. Description: Human melanoma A375 subcutaneous xenograft in BALB/c nude mice, intratumoral injection of polypeptides. It counts as in vivo. As to the method: Human melanoma A375 cells in the logarithmic phase of growth were cultured under sterile conditions to prepare a 5×10^6/200 μL cell suspension, and 200 μL cell suspension was separately injected into BALB/c nude mice subcutaneously. An electronic digital vernier caliper was used to measure the long-axis and short-axis diameters of the transplanted tumors, and the formula: Tumor Volume (TV)=½×Long-axis Diameter×Short-axis Diameter^2 was used to calculate the volume of the tumors. The mice were randomly grouped when the tumor volume reach about 100 mm^3.
Polypeptides JWA-1, JWA-2, JWA-3, and an equivalent peptide blend (Pep) of the three polypeptides were injected into the tumors of the various groups of mice respectively, and the doses used were 25 mg/kg and 10 mg/kg, respectively; the negative control group was injected with an equal amount of sterile phosphate-buffered saline (PBS). The polypeptide injection groups and the control group were administered on alternate days (48 hrs interval) by injection for 5 times; and the body weight of the mice and their tumor diameters were measured at each administration. After completion of the experiment the mice were sacrificed after anesthesia, tumors were separated from the bodies and their weight were measured.
In this example, the method for dorsal subcutaneous tumor bearing of BALB/c nude mice by inoculation of A375 cells is the same as Example 2.
The aforementioned BALB/c nude mice inoculated with human melanoma A375 cells by intratumoral injection were separately treated using polypeptide JWA-1 of low dose (5 mg/kg), medium dose (10 mg/kg) and high dose (15 mg/kg); at the same time, a sterile PBS negative control group and a 10 mg/kg non-pep injection group (referred to simply as “non-pep group”, the polypeptide sequence used was SEQ ID NO: 14; […]-EEMQR, the N-terminus thereof being acetylated and the C-terminus thereof amidated) were established. The establishment of the non-pep group was for observing whether JWA polypeptides have any specific anti-tumor effect.
To verify the impact of phosphorylation of S in polypeptide JWA-1 on the anti-tumor effect thereof, a non-phosphorylated polypeptide JWA-7 injection group (10 mg/kg) was added in the aforementioned experiment.
The various groups were administered by intratumoral injection on alternate days for 5 times consecutively; and the body weight of the mice and their tumor diameters were measured at each administration. After completion of the experiment the mice were sacrificed after anesthesia, tumors were separated from the bodies and the tumor weights were measured.
The BALB/c nude mice inoculated with human melanoma A375 cells were separately treated using 10 mg/kg polypeptides JWA-1, JWA-4, JWA-5, and JWA-6; at the same time, a 10 mg/kg non-pep injection group (referred to simply as “non-pep group”, the polypeptide sequence used was the same as Example 3) was established.
The mice with transplanted tumors in this example were the same as Example 2, and the experimental method used therein was also the same as Example 2. The various polypeptides were administered by intratumoral injection at a dose of 10 mg/kg, and a non-pep injection group (referred to simply as “non-pep group”, the polypeptide sequence used was the same as Example 3) was established.
A general note: A xenograft is tissue or cells of one species grown in another, often human tumour cells in immunodeficient mice.

The test system of test [2] is A375 cells. Description: Western Blot of apoptosis-related molecules (PARP-1, caspase-3) in A375 cells. Conditions: A375, 24 hrs. The format is cell-based, human. The method, then:
(§1) The combined effect of ATO and polypeptide JWA-6 on the self-destruction of protein expression was also determined A375 cells in the logarithmic phase of growth were conventionally digested and 5×10^5 cells were inoculated evenly in a 60 mm cell culture dish, and different doses of ATO were used to individually treat the cells for 24 hrs, or different doses of ATO in combination with different doses of polypeptide JWA-6 were used to treat the cells for 24 hrs, after which 0.18 mL of RIPA lysis buffer containing 0.5% phenylmethanesulfonyl fluoride (PMSF) was added to extract protein. After centrifugation at 12000×g for 15 minutes, the supernatant was taken, protein concentration was examined. Based on the molecular weight measured, a polyacrylamide gel having a suitable concentration was chosen for protein electrophoresis where each well was added with […] of protein, and the conditions for electrolysis were 60 V, 30 minutes and 90 V, 1-1.5 hrs. After completion of the electrolysis, semi-dry transfer was performed to transfer the protein from the gel onto a polyvinylidene difluoride (PVDF) membrane. After completion of the transfer, the membrane was blocked with 5% skim milk at room temperature for 1-2 hrs. Then, the membrane was washed 3 times (each lasting 5 minutes) using Tris-buffered Saline with Tween (TBST) containing 0.1% Tween-20, and incubation of the corresponding antibody was performed overnight at 4° C. On the next day, membrane was washed 3 times (each lasting 5 minutes) using Tris-buffered Saline with Tween (TBST) containing 0.1% Tween-20; incubation of secondary antibody was performed at room temperature for 1-2 hrs; and again membrane was washed 8 times (each lasting 5 minutes) using Tris-buffered Saline with Tween (TBST) containing 0.1% Tween-20. The membrane was added with enhanced chemiluminescence (ECL) liquid and exposed.
Polypeptide CPP-JWA-6 at a dose of 20 μM, 50 μM was applied individually and applied in combination with ATO (5 μM) on A375 cells (as shown in FIG. 40) and SGC7901 cells (as shown in FIG. 41) for 24 hrs before protein was extracted, and the Western Blot method of Example 7 was used to examine the changes in apoptosis-related molecules.
On the technique in general: In western blotting, separated proteins are transferred to a membrane and probed.

For a further test, the system named is SGC7901 cells. In words: Western Blot of PARP-1 in SGC7901 cells. It counts as cell-based. Conditions: 24 hrs. As to the method:
as §1, with “exposed. […]” for “exposed.”

Test [3] relates to Mouse Melanoma B16F10 Cells. Description: Cell proliferation with CCK8 reagent, B16F10 cells. It counts as cell-based. Conditions: 0-50 μM, 24, 48 and 72 hrs, in comparison with the control group. The method, then:
(§2) B16F10 or A375 cells in the logarithmic phase of growth were trypsinized and seeded in a 96-well plate (5×10^3 cells/well), and were treated with different doses (0 μM, 5 μM, 10 μM, 25 μM, 50 μM) of polypeptide JWA-1, JWA-5, JWA-6 or non-pep (the polypeptide sequence used was the same as Example 3) for 24 hrs, 48 hrs and 72 hrs, respectively. The original culture medium was removed from the 96 wells at the indicated time and cell proliferation was determined with CCK8 reagent according to the manufacturer's instructions. Four duplicate samples were taken from each group and the experiments were repeated for three times.
On the technique in general: Tetrazolium dyes change colour on reduction, which living cells bring about.

In test [4] the test system is A375 cells. In words: Cytoactivity of A375 cells treated with ATO alone or with polypeptides in combination with ATO. Conditions: polypeptide 50-500 μM in combination with ATO 0.5-5 μM, 24 and 48 hrs. The format is cell-based, human. The method, then:
Firstly, the dose and time for treatment of A375 cells with ATO were determined. A375 cells in the logarithmic phase of growth were conventionally digested and seeded in a 96-well plate (5×10^3 cells/well), and different doses (5 μM, 10 μM, 25 μM, 50 μM) of ATO were used to treat the cells for 24 hrs and 48 hrs after cell attachment. It was discovered that the activity of A375 cells was reduced by 40% after 24 hrs of treatment with 5 μM ATO (as shown in FIG. 24), and that the cell growth inhibition rate was approximately 100% after 48 hrs of treatment with different doses of ATO (as shown in FIG. 25). Therefore, ATO with a concentration smaller than or equal to 5 μM was chosen to treat the cells for 24 hrs for subsequent reference of dose and time for combined medication.

The test system of test [5] is Human Melanoma A375 Cells. Description: Cell proliferation with CCK8 reagent, A375 cells. It counts as cell-based. Conditions: 0-50 μM, 24, 48 and 72 hrs, in comparison with the control group. As to the method:
as §2

In test [6] the test system is human melanoma A375 cells. In words: Human melanoma A375 subcutaneous xenograft in NOD/SCID mice, intraperitoneal injection of polypeptides. The format is in vivo. Conditions: Example 5, alternate days, 5 times. From the text:
The polypeptide designed and synthesized in this example was JWA-6+RGD whose sequence was SEQ ID NO: 7, i.e. 6-aminocaproic acid-FPGSDRF-GGGG-RGD, wherein amino acid S was phosphorylated. In addition, the N-terminus of the polypeptide sequence was acetylated and the C-terminus thereof was amidated during synthesis to prevent rapid degradation of the polypeptide. In this example, non-obese diabetic/severe combined immunodeficiency (NOD/SCID) mice were chosen for tumor-bearing model and the method for dorsal subcutaneous tumor bearing by inoculation of human melanoma A375 cells is the same as Example 2. The mice were randomly divided into four treatment groups after the tumors grew to a volume of about 100 mm^3. […]
Then, 50 mg/kg polypeptide JWA-6, 10 mg/kg polypeptide JWA-6+RGD, 50 mg/kg polypeptide JWA-6+RGD, and 50 mg/kg non-pep (the polypeptide sequence used was the same as Example 3) were injected intraperitoneally. The various groups were administered with injection on alternate days for 5 times consecutively; and the body weight of the mice and their tumor diameters were measured at each administration. After completion of the experiment the mice were sacrificed after anesthesia, tumors were separated from the bodies and the tumor weights measured.
Thereafter, the tumor bearing mice were obtained using the foregoing method of this example and divided into seven injection groups which were intraperitoneally injected with polypeptides JWA-6+RGD, JWA-6+RGD0, JWA-6+RGD1, JWA-6+RGD3, JWA-6+RGD7, JWA-6+RGD10, and non-pep (the polypeptide sequence used was the same as Example 3) at a dose of 50 mg/kg. The various groups were administered by intraperitoneal injection on alternate days for 5 times consecutively; and the body weight of the mice and their tumor diameters were measured at each administration. The day of first administration was taken as the first day, and the experiment was stopped on the twelfth day when the mice were sacrificed after anesthesia, and tumors were separated from the bodies and the tumor weights were measured.

Where [7] appears, read: 20, 50 μM polypeptide combined with ATO 5 μM, in comparison with ATO alone.
The mark [8] stands for this setting: polypeptide alone at a dose not exceeding 50 μM.
Where [9] appears, read: Example 3, 10 mg/kg intratumoral, alternate days, 5 times, 10 mg/kg.
Setting [10] is: Example 4, 10 mg/kg intratumoral, alternate days, 5 times, compared among polypeptides.

As for “6-aminoacetic acid-EEMQR [non-pep, reference compound]”, the tumor inhibition effect entry in test [1] (Example 3, 10 mg/kg intratumoral, alternate days, 5 times) is recorded as “no tumor inhibition effect”.

As to “6-aminocaproic acid-(R)9—FPGSDRF ([Ahx]RRRRRRRRRFPG[pS]DRF) [CPP-JWA-6]”, the PARP-1 spliceosome entry in the test with A375 cells [2] (setting [7]) and in the test on SGC7901 cells (setting [7]) was “significantly increased” in each case. The caspase-3 spliceosome result in the test with A375 cells [2] (setting [7]) is recorded as “significantly increased”. In addition, the “changes in the expression of PARP-1” value in the test on A375 cells [2] (setting [8]) and in the test on SGC7901 cells (setting [8]) was “will not cause any changes” throughout.

Regarding “6-aminocaproic acid-FFPGSDRFA [JWA-1] ([Ahx]FFPG[pS]DRFA)”, in test [3], the “inhibition effect on B16F10 cells” value is on record as “no inhibition effect”. Moreover, the “cytoactivity of A375 cells, combined use with ATO” value in the test on A375 cells [4] was “no synergistic effect”. Also, the “inhibition effect on subcutaneous tumor growth in nude mice” value in test [1] (Example 2, 10 mg/kg intratumoral, alternate days, 5 times, in comparison with PBS control group) is recorded as “more significant”. The “tumor weight to body weight ratio” value in test [1] (Example 2, 10 mg/kg intratumoral, alternate days, 5 times, in comparison with PBS control group, P<0.05) is given as “smaller”. Besides, the tumor inhibition effect entry in test [1] (setting [9]) was “significant tumor inhibition effect”. The “dose-effect relation of tumor inhibition” value in test [1] (Example 3, 5, 10 and 15 mg/kg intratumoral) is “no trend of enhanced effect was detected along with dose increase”. The “inhibition effect on A375 cells” value in test [5] was “no inhibition effect”.

“6-aminocaproic acid-FFPGSDRFA [JWA-7] ([Ahx]FFPGSDRFA)”: the tumor inhibition effect entry in test [1] (setting [9]) was “no tumor inhibition effect”.

For “6-aminocaproic acid-FPGSDRF-GGGG-RGD (Ac-[Ahx]FPG[pS]DRFGGGGRGD-NH2; SMILES CC(=O)NCCCCCC(=O)N[C@@H](Cc1ccccc1)C(=O)N1CCC[C@H]1C(=O)NCC(=O)N[C@@H](COP(=O)(O)O)C(=O)N[C@@H](CC(=O)O)C(=O)N[C@@H](CCCNC(=N)N)C(=O)N[C@@H](Cc1ccccc1)C(=O)NCC(=O)NCC(=O)NCC(=O)NCC(=O)N[C@@H](CCCNC(=N)N)C(=O)NCC(=O)N[C@@H](CC(=O)O)C(N)=O) [JWA-6+RGD]”, the tumor inhibition effect result is listed as “a certain degree of tumor inhibition effect” in test [6] (10 mg/kg intraperitoneal) and “better tumor inhibition effect” in test [6] (50 mg/kg intraperitoneal).

Take 6-aminocaproic acid-GSD [JWA-4]: in test [1] (setting [10]), the tumor inhibition effect entry is given as “significantly worse than that of polypeptide JWA-6”.

As to “6-aminocaproic acid-PGSDR ([Ahx]PG[pS]DR) [JWA-5]”, the “inhibition effect on B16F10 cells” value in test [3] is “no inhibition effect”. The tumor inhibition effect result in test [1] (setting [10]) was “significantly worse than that of polypeptide JWA-6”. Besides, in test [5], the “inhibition effect on A375 cells” value was “no inhibition effect”.
